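Exposure lasted 48 hours, with cells grown in 96-well plates and compounds tested at five concentrations. GI50 is the concentration that inhibits growth by half.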 The source made the active and inactive calls. Cut-off read from the data, not from the text of the source: active = GI50 up to about 1.1 µM and inactive = higher.

Holding throughout (test): NCI-60 cell line screen, 48 h
Assay [1] has as its system BT-549.
Assay [2] concerns COLO 205.
Assay [3] relates to EKVX.
Assay [4] concerns HCT-15.
Assay [5] deals with HL-60.
Assay [6] relates to HOP-92.
Assay [7] has as its system IGROV-1.
Assay [8] concerns K562.
The test system of assay [9] is MDA-MB-435.
Assay [10] relates to NCI-H23.
Assay [11] concerns NCI/ADR-RES.
The subject of assay [12] is RPMI-8226.
Assay [13] has as its system SF-268.
Assay [14] concerns SK-MEL-2.
The test system of assay [15] is SK-MEL-5.
Assay [16] has as its system T47D.
Assay [17] concerns TK-10.
The test system of assay [18] is UACC-257.
Assay [19] has as its system UACC-62.
For assay [20], the system named is RXF 393.

In the case of `Cc1cc(O)c2c(c1)C(=O)C=C(Br)C2=O`, the GI50 is 16.9 µM (inactive) in [1]; 6.32 µM (inactive) in assay [2]; 24.8 µM (inactive) in assay [3]; 10.2 µM in assay [4]; 0.724 µM (active) in [5]; 13.8 µM (inactive) in assay [6]. Moreover, the GI50 in [7] is > 43.7 µM (inactive); in assay [8], 0.807 µM (active); in assay [9], 14.5 µM (inactive); in [10] it was 17.1 µM (inactive); in assay [11], 19.2 µM (inactive); in assay [12] it was 6.75 µM (inactive). The GI50 in [13] is 30.5 µM (inactive); in [14], 17.1 µM (inactive); in [15], 14.4 µM (inactive); in [16], 5.68 µM (inactive); in assay [17] it was 16.4 µM (inactive); in assay [18] it was 13.1 µM (inactive). The GI50 in assay [19] is 16.6 µM (inactive).

`CCN(CC(O)COc1ccc2c(c1)[n+]([O-])nc(N)[n+]2[O-])C(C)=O` (configuration not stated): the GI50 is > 100 µM (inactive) in [1]; 3.7 µM (inactive) in [2]; > 100 µM (inactive) in [3]; above 100 µM in assay [4]; > 100 µM (inactive) in [5]; > 100 µM (inactive) in [7]. Besides, the GI50 in assay [8] is 79.6 µM (inactive); in [9], > 100 µM (inactive); in assay [10], 91.2 µM (inactive); in [11], > 100 µM (inactive); in [12], > 100 µM (inactive); in assay [13], 80.5 µM (inactive). Also, the GI50 in assay [14] is > 100 µM (inactive); in assay [15], 79.1 µM (inactive); in assay [16], 20.2 µM (inactive); in assay [17], > 100 µM (inactive); in assay [18], > 100 µM (inactive); in [19], 49.7 µM (inactive).

`Nc1ncnc2c1ncn2[C@@H]1C[C@H]1CO`: the GI50 in [1] is > 10 µM (inactive); in assay [3] it was > 100 µM (inactive); in [4], above 100 µM; in assay [5], > 100 µM (inactive); in assay [8], > 100 µM (inactive); in [9] it was > 10 µM (inactive). The GI50 in [10], in [11], in [12], in assay [14], in assay [16] and in [18] was > 100 µM (inactive) in each case.

`COc1ccc(OC)c2sc(N3C(=O)/C(=C/Cc4ccco4)N=C3c3ccccc3)nc12`: the GI50 is 50.2 µM (inactive) in assay [1]; 50.5 µM (inactive) in assay [2]; 66.8 µM (inactive) in [3]; 42.7 µM in assay [4]; 18.1 µM (inactive) in [5]; 35.8 µM (inactive) in [6]. The GI50 was 30.6 µM (inactive) in assay [7]; 29.9 µM (inactive) in assay [8]; 19.4 µM (inactive) in assay [9]; 63.1 µM (inactive) in assay [11]; 15.5 µM (inactive) in assay [12]; 34 µM (inactive) in assay [13]. Further, the GI50 in assay [14] was 24.1 µM (inactive); in assay [15], 21.2 µM (inactive); in [16], 26 µM (inactive); in assay [17], > 100 µM (inactive); in [18], > 100 µM (inactive); in assay [19], 21.8 µM (inactive).

Take `C/N=C1\OC2=C3C(c4ccccc4)(O/C(=N/C)N(C)C3(c3ccccc3)OC2=O)N1C` (configuration not stated): the GI50 in assay [1] was > 100 µM (inactive); in assay [2], > 100 µM (inactive); in [3], > 100 µM (inactive); in assay [4], above 100 µM; in assay [5], > 100 µM (inactive); in assay [7], > 100 µM (inactive). For the same compound, the GI50 in assay [8] was > 100 µM (inactive); in assay [10], > 100 µM (inactive); in assay [11], > 100 µM (inactive); in [13], > 100 µM (inactive); in assay [14], 23.7 µM (inactive); in assay [15] it was > 100 µM (inactive). Further, the GI50 in assay [16], in [17], in [18] and in [19] was > 100 µM (inactive) each time.

For the compound `COC(=O)c1ccccc1C#CC#Cc1ccccc1C(=O)OC`, the GI50 in assay [1] is > 10 µM (inactive); in [2] it was 1.69 µM (inactive); in [3], > 10 µM (inactive); in [4] it was 7.35 µM; in assay [5], 4.76 µM (inactive); in [7] it was > 10 µM (inactive). Moreover, the GI50 in assay [8] was 8.57 µM (inactive); in assay [9], > 10 µM (inactive); in assay [10] it was > 10 µM (inactive); in assay [11] it was > 10 µM (inactive); in [12], > 10 µM (inactive); in assay [20], > 10 µM (inactive). The GI50 in assay [13], in [14], in [15], in assay [16], in [17] and in assay [18] was > 10 µM (inactive) throughout. In [19], the GI50 was > 10 µM (inactive).

Turning to `CN1CCN(C(=S)N(C(=O)c2ccco2)C2CCCCC2)CC1`, the GI50 is > 100 µM (inactive) in assay [1]; > 100 µM (inactive) in [2]; above 100 µM in [4]; > 10 µM (inactive) in assay [5]; > 100 µM (inactive) in assay [6]; > 100 µM (inactive) in [7]. Moreover, the GI50 in assay [8], in assay [9], in assay [10], in assay [12], in assay [20] and in assay [13] was > 100 µM (inactive) in each case. For the same compound, the GI50 in [14], in assay [15], in assay [16], in [17], in assay [18] and in [19] was > 100 µM (inactive) in each case.

As for `COC1O[C@H]2[C@H]3[C@@H]1[C@@H](OS(=O)(=O)c1ccc(C)cc1)C(=O)N3C[C@H]2O` (some centres not stated), the GI50 in assay [1] is > 100 µM (inactive); in [2], > 100 µM (inactive); in assay [3], > 100 µM (inactive); in assay [4], above 100 µM; in assay [8], 65.9 µM (inactive); in assay [9] it was > 100 µM (inactive). Further, the GI50 in assay [10] was > 100 µM (inactive); in assay [11], > 100 µM (inactive); in [12], 61.2 µM (inactive); in assay [20], 17.9 µM (inactive); in [13], > 100 µM (inactive); in assay [14] it was > 100 µM (inactive). The GI50 is > 100 µM (inactive) in assay [15]; 64.4 µM (inactive) in assay [16]; > 100 µM (inactive) in [17]; > 100 µM (inactive) in assay [18]; > 100 µM (inactive) in assay [19].

For the compound `CCOC(=O)C1CCCc2sc(N)c(C#N)c21` (configuration not stated), the GI50 in assay [1] was 55.5 µM (inactive); in assay [2], > 100 µM (inactive); in assay [3] it was 57.3 µM (inactive); in [4], above 100 µM; in assay [5], > 100 µM (inactive); in assay [6] it was 70.6 µM (inactive). The GI50 in assay [7], in assay [8], in assay [10], in [12], in assay [20] and in assay [14] was > 100 µM (inactive) throughout. Moreover, the GI50 in [15], in assay [16], in [17], in assay [18] and in [19] was > 100 µM (inactive) in each case.

For `CCN(CCN(CC)C(=O)Nc1ccccc1)C(=O)Nc1ccccc1`, the GI50 in [1] was > 100 µM (inactive); in [2], > 100 µM (inactive); in [3], > 100 µM (inactive); in assay [4], above 100 µM; in [5], > 100 µM (inactive); in [6] it was > 100 µM (inactive). Further, the GI50 in assay [7], in assay [8], in assay [10], in [11], in assay [12] and in assay [20] was > 100 µM (inactive) in each case. Moreover, the GI50 in [13], in [14], in assay [15], in assay [16], in [17] and in [18] was > 100 µM (inactive) in each case. In [19], the GI50 was > 100 µM (inactive).

With `COc1ccc(C2SCC(=O)N2c2ccc(-n3c(-c4ccccc4)nc4ccccc4c3=O)cc2)cc1OC` (configuration not stated), the GI50 was > 100 µM (inactive) in assay [1]; > 100 µM (inactive) in assay [2]; > 100 µM (inactive) in [3]; above 100 µM in assay [4]; > 100 µM (inactive) in assay [5]; > 100 µM (inactive) in assay [7]. Also, the GI50 in assay [8], in assay [9], in assay [10], in assay [11], in [12] and in [13] was > 100 µM (inactive) throughout. The GI50 in assay [14] was > 100 µM (inactive); in assay [15], > 100 µM (inactive); in [16], 90.6 µM (inactive); in assay [17], > 100 µM (inactive); in [18] it was > 100 µM (inactive); in [19], 62.1 µM (inactive).

Take `O=C1NC2(CCCCC2)C(=O)N1CCN(CCCl)CCCl` [SPIROMUSTINE]: the GI50 is > 25 µM (inactive) in [1]; > 230 µM (inactive) in assay [2]; 204 µM (inactive) in assay [3]; 41.9 µM (inactive) in assay [5]; > 250 µM (inactive) in [7]; 214 µM (inactive) in assay [8]. Moreover, the GI50 in assay [9] was > 25 µM (inactive); in [10], 106 µM (inactive); in assay [11], 136 µM (inactive); in assay [12] it was 134 µM (inactive); in [14], > 141 µM (inactive); in assay [15], > 241 µM (inactive). Moreover, the GI50 is 23.9 µM (inactive) in assay [16], > 25 µM (inactive) in [17], 218 µM (inactive) in assay [18] and 77.6 µM (inactive) in [19].

For the origin of these results see ChEMBL document CHEMBL1201862, “PubChem BioAssay data set” (2004).
